The values below come from US6011000A, “Compositions for the treatment of blood disorders” (priority 1995, dated 2000).

Each structure is given as a SMILES string. Where two headings read alike, the source gives them in different places.

Data set [1] concerns anemic baboon. The data set is described as follows: In vivo reticulocyte proliferation, globin expression and blood counts in anemic (phlebotomized) baboons. On the procedure:
Experiments were performed to determine if administration of the chemical compositions could induce fetal globin gene expression in an in vivo model similar to humans (S. P. Perrine et al., Brit. J. Haematol. 88:555-61, 1994). Briefly, chemicals were prepared as sterile pharmaceutical solutions in pH adjusted sterile water. A variety of chemical compositions were administered sequentially to some baboons. After administration of one compound, a wash-out period with no compound administration was maintained until reticulocytes returned to base line prior to administration of the next compound. This was done, at least partly, to compare the magnitude of response which occurred within the same individual animal to different compounds.
Briefly, juvenile female baboons (2 years old) were catheterized with arterial and venous catheters and phlebotomized gradually every day to maintain a moderate anemia of 7.0 to 7.5 grams hemoglobin/dl. Fetal reticulocytes, the newly produced red blood cells containing fetal globin, were assayed using a monoclonal antibody against fetal globin (HbF) as described by G. Dover et al. (Blood 67:735-38, 1986). Briefly, blood was stained with two antibodies, one specific for reticulocytes and another against fetal globin protein. The amount of antibody bound cells was determined by FACS analysis. Globin chain synthesis was assayed as described by J. B. Clegg et al. (J. Mol. Biol. 19:91-108, 1966). Briefly, reticulocytes were radio-labeled with ^3 H-leucine which was incorporated in equal proportions into actively synthesized globin chains. After incubation in leucine-free media, cells were washed, and globin proteins were separated and purified by column chromatography. Radioactivity incorporated into each peak is compared and the ratios of gamma to gamma plus beta globin calculated. Each animal served as its own control with baseline monitoring assays performed for 4-6 weeks before any drug was administered. Phlebotomy was continued daily, so that peripheral HbF levels in the animals were not considered to be accurate over the short treatment time-frames and were not monitored. Safety monitoring was performed by frequent physical examinations, quantitation of food eaten, activity and frequent chemistry and hematology monitoring. Complete blood counts were assayed before, during and after treatment. Results presented were not adjusted to account for the daily phlebotomy.

The test system of data set [2] is fetal globin production. Conditions: cited from earlier work.
Data set [3] relates to system A transport (K562 cells and nucleated erythroblasts from fetal liver). The data set is described as follows: Effects on system A amino acid transport (3H-MAIB uptake). Format: cell-based, human. Here is the method: Inhibition of nutrient uptake is undesirable for treatment of anemias. Methyl aminoisobutyric acid (MAIB) labeled with tritium (^3 H) is normally taken up by system A amino acid transport. Cold (unlabeled) compounds were added to cultures containing ^3 H-MAIB and incubated for 1 hour. Cells were harvested and the amount of ^3 H taken up by cells was quantitated by scintillation counting.

Data set [4] relates to fetal globin mRNA (human erythroleukemia cells). The data set is described as follows: Fetal globin mRNA in erythroleukemia cells (primer extension). Format: cell-based. On the procedure: Compounds were tested for increased expression of the human globin genes in human erythroid cells. In addition, as the cell line being tested is a tumor cell line, the assay determines if differentiation, a growth inhibitory effect on cancer cells, is induced by the compounds tested. Human erythroleukemia cells were cultured in RPMI media with 10% fetal calf serum alone or with treatment with various compounds for 4 days. Globin MRNA was quantitated by primer extension analysis. Fetal globin mRNA was compared to the amount of fetal globin mRNA produced in untreated cells during the same culture period. The quantitation was expressed as a percent of alpha globin MRNA which was constant. Results are expressed proportional to α-globin mRNA (Table 3).

Data set [5] has as its system proximal promoter of the gamma globin gene (K562 cells). The data set is described as follows: Gamma globin promoter-neomycin transfection (61 bp proximal promoter), G418-resistant colonies. Conditions: 1 mM, 8 weeks in G418. Format: cell-based, human. Here is the method: Gamma globin promoter-neomycin transfection experiments were performed to determine if compounds act by inducing an increase in activity from the proximal promoter of the gamma globin gene. Constructs containing 61 bp of the proximal gamma globin promoter were linked to the reporter gene for neomycin phosphotransferase (NEO) and transfected into permissive K562 cells by electroporation. After 18 hours, transfected cells were passed at 10^3 cells per well into RPMI media containing G418 (neomycin), which kills all mammalian cells unless the gene for NEO is expressed. Phenoxyacetic acid and thiophenoxyacetic acid were added to some of the cells plated into the RPMI/G418 media at concentrations of 1 mM. Cultures were incubated for 8 weeks with media changes performed as needed. Colonies which survived and grew in the presence of G418 were scored and the number of such colonies was compared to those generated when the cells were plated into G418 media without the test compounds. […] There was a greater than 6-fold (>600%) increase in proportions of colonies surviving the presence of phenoxyacetic acid (6/24 wells) and a three-fold (300%) increase in survival in the presence of thiophenoxyacetic acid (3/24 wells).

The test system of data set [6] is fetal globin (cultured erythroid progenitor cells). Conditions: cited from earlier work.
In data set [7] the test system is fetal globin (gamma globin). The data set is described as follows: Fetal globin expression in erythroid progenitor cells from cord blood. Format: cell-based, human. Conditions: for Gamma/(Gamma + Beta): Exp. B, 12-13 days, untreated 25.4%, 27.5%. Here is the method: Compositions were tested for activity in inducing fetal globin expression and protein production in erythroid progenitor cells cultured from human cord blood and analyzed as described by S. P. Perrine et al. (Blood 74: 454-60, 1989). Briefly, mononuclear cells were cultured in IMDM with 30% fetal calf serum and 2 units erythropoietin per ml to induce erythroid differentiation. Colonies were harvested on day 12-13, incubated with radio-labelled (^3 H) leucine, and further incubated in leucine-free media, still in the presence of compounds, overnight. Globin composition in the erythroid cells was analyzed by laser densitometry of electrophoretically separated globin chains stained with Coomassie blue, and by autoradiography. Treated cells were incubated for 12-13 days (Table 2, Experiments A and B) or overnight (Table 2, Experiment C) in the presence of the indicated compounds and compared to untreated control cells cultured from the same human subject.

Regarding `CCCC(=O)OCC(COC(=O)CCC)OC(=O)CCC` [tributyrin], in data set [1] (500 to 750 mg/kg per day i.v., 3 days, from 0%), the Gamma globin expression entry is recorded as “about 2.2 % of total non-alpha globin expression”. For the same compound, the Fetal reticulocytes in data set [1] (500 to 750 mg/kg per day i.v., 3 days, from 10%) came out at 14%.

Take `CCCC(=O)[O-].[Na+]` [sodium butyrate]: the “stimulation of fetal globin production” value in data set [2] was “effective in stimulating fetal globin production”.

Consider `CC(=Cc1ccccc1)C(=O)O` [α-methyl cinnamic acid], for which the “system A (neutral) amino acid transport” value in data set [3] was “do not significantly alter system A transport of amino acids”.

With `CCCC(=O)OCC(O)CO` (stereo not shown) [MB, monobutyrin], the “induction of fetal globin mRNA” value in data set [4] is given as “significantly increased the induction of fetal globin MRNA”. Also, the “Gamma Globin mRNA (increase)” value in data set [4] (1.0 mM, 4 days) turned out to be 26%. This compound also gave a Gamma/Alpha in data set [4] (1.0 mM, 4 days, untreated 0.46) of 0.73. In data set [1] (500 to 2,000 mg/kg i.v. daily, 4 days), the “increase in fetal reticulocytes above basal levels” value is reported as 220%. The compound also displayed a Fetal reticulocytes in data set [1] (500 to 2,000 mg/kg i.v. daily, 4 days, from 12%) of 27%.

With `CCC(N)C(=O)O` (stereo not drawn) [α-amino-n-butyric acid], in data set [2], the “stimulation of fetal globin production” value was “effective in stimulating fetal globin production”.

As for `O=C(O)CSc1ccccc1` [thiophenoxyacetic acid], the “increase in proportions of colonies surviving” value in data set [5] was “three-fold”. In addition, the colonies surviving in data set [5] (none of 24 wells without compound) is recorded as 3/24. The activation at 1000 µM in data set [5] (Homo sapiens, K562, 1344 h, read-out: increase in proportions of colonies surviving) turned out to be 300%.

Take `O=C(O)CCCc1ccccc1` [4-phenyl butyrate]: in data set [6], the “fetal globin expressing reticulocyte proliferation” value is “decrease fetal globin expressing reticulocyte proliferation” and the “relative proportions of fetal globin per cell” value is “increase relative proportions of fetal globin per cell”.

For the compound `CC(=O)Oc1ccccc1` [Phenyl acetate], in data set [6], the “fetal globin expressing reticulocyte proliferation” value was “decrease fetal globin expressing reticulocyte proliferation” and the “relative proportions of fetal globin per cell” value is reported as “increase relative proportions of fetal globin per cell”.

As for `CC(Cc1ccccc1)C(=O)O` (stereo not drawn) [α-methyl hydrocinnamic acid], the “production of blood cell types” value in data set [1] (baboons) is given as “stimulated production of many different cell types”. Further, the “red blood cell count” value in data set [1] (first baboon, infusion 500-1,000 mg/kg, 5 days, from 2.28) is 3.53 10^6 red blood cells per microliter. The “white blood cell count” value in data set [1] (first baboon, infusion 500-1,000 mg/kg, 5 days, from 4.1) is listed as 11.5. Also, the “total number of reticulocytes” value in data set [1] (first baboon, infusion 500-1,000 mg/kg, 5 days, from 5.6%) was 11%. Moreover, the “total hemoglobin after treatment” value in data set [1] (first baboon, infusion 500-1,000 mg/kg, 5 days, from 6.4) was found to be 7.9 grams/dl. In addition, the “packed red blood cell volume” value in data set [1] (first baboon, infusion 500-1,000 mg/kg, 5 days, from 19.5%) is recorded as 31.2 % of total blood volume; in data set [1] (second baboon, 500-700 mg/kg, 5 days, from 14.5%), 20.2%. Besides, in data set [1] (first baboon, infusion 500-1,000 mg/kg, 5 days, from 26.7), the platelet count is reported as 46.8 10^4 cells/μl. The “rise in total hemoglobin” value in data set [1] (first baboon, infusion 500-1,000 mg/kg, 5 days, over 3 days) was 1.5 grams/dl; in data set [1] (second baboon, 500-700 mg/kg, 5 days), 1.4 grams. The “Red blood cell counts” value in data set [1] (second baboon, 500-700 mg/kg, 5 days, from 2.3×10^6) is given as 2.82×10^6. In addition, the Total hemoglobin in data set [1] (second baboon, 500-700 mg/kg, 5 days, from 4.6) is 6.0 g/dL. Further, the “White blood cell counts (maximum)” value in data set [1] (second baboon, 500-700 mg/kg, 5 days, from 8,700) is 14,300. The “platelet counts (high)” value in data set [1] (second baboon, 500-700 mg/kg, 5 days, from 328,000) is reported as 486,000. The “Total fetal globin synthesis” value in data set [1] (second baboon, 500-700 mg/kg, after 5 days, from 4.0%) is 10.8%. In addition, in data set [1] (third baboon, same dose, 5 days), the adverse effects entry is on record as “No adverse affects were observed”. In addition, in data set [1] (third baboon, same dose, 5 days, from 0%), the “Fetal globin protein synthesis” value is 6.2 % of non-alpha globin. In addition, in data set [1] (third baboon, same dose, after 5 days (FIG. 8), from 0%), the “fetal hemoglobin producing reticulocytes” value amounted to 10%. Further, in data set [3] (1 hour, 3H-MAIB (FIG. 12)), the “system A (neutral) amino acid transport” value is “caused no significant inhibition and actually increased uptake of nutrients into cells”.

For `CC(CO)C(N)=O` (stereo not shown) [MHPP, 2 methyl-3-hydroxypropionamide], the “Gamma/(Gamma + Beta)” value was found to be 29.8% in data set [7] (0.05 mM) and 24.0% in data set [7] (1.0 mM). In data set [7] (concentrations above 0.25 mM (FIG. 4)), the “expression of fetal globin” value is recorded as “decreased the expression of fetal globin”. For the same compound, the fetal globin expression result in data set [7] (concentrations below 0.25 mM) is “increased fetal globin expression”.
